From patent publication US20240425478A1, “CYCLOPENTYLPYRAZOLE CDK2 INHIBITORS” (Genentech, Inc., priority 2021, published 2024)
Where two headings read alike, the source gives them in different places.

Experiments:
[1] = molecular target: T1, Cyclin Dependent Kinase 1/Cyclin A2 (CDK1-cycA2) (Homo sapiens, UniProt P06493); test: CDK1-cycA2 TR-FRET (Lance) enzyme assay; format: biochemical; settings: Table O, enzymatic assay
T1 construct: purchased ProQinase 0134-0054-1
Method in brief: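 Human CDK1/cyclin A2 pre-incubated 30 min with compound dose responses in 50 mM HEPES pH 7.5, 10 mM MgCl2, 2 mM TCEP, 0.05% BGG, 0.01% Brij 35. Reaction quenched with EDTA (15 mM final); TR-FRET readout using Eu-anti-phospho-4E-BP1, acceptor/donor ratio. Inhibition constants from Morrison equation.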

[2] = molecular target: T2, Cyclin Dependent Kinase 2/Cyclin E1 (CDK2-cycE1) (Homo sapiens, UniProt P24941); test: CDK2-cycE1 TR-FRET (LANCE) enzyme assay; format: biochemical; settings: for Ki: enzymatic assay, read-out: CDK2 Ki; for FS CDK1/CDK2 / FS CDK4/CDK2: fold selectivity; for increased fold-selectivity CDK4/CDK2 over Comparator C: (+) sign after FS CDK4/CDK2;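 for improvement in potency against CDK2 (Ki) over Comparator C: fold lower CDK2 Ki than comparator c (Ki 0.032 µM)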
T2 construct: purchased ProQinase 0050-0055-1
Method in brief: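 Compound dose responses pre-incubated 30 min with CDK2-cycE1 in 50 mM HEPES pH 7.5, 10 mM MgCl2, 2 mM TCEP, 0.05% BGG, 0.01% Brij 35. Reaction quenched with EDTA (15 mM final), phospho-MBP detected by Eu-anti-phospho-MBP TR-FRET (acceptor/donor ratio). Inhibition constants from Morrison equation.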

[3] = molecular target: T3, Cyclin Dependent Kinase 4/Cyclin D3 (CDK4-cycD3) (Homo sapiens, UniProt P11802); test: CDK4-cycD3 TR-FRET (LANCE) enzyme assay; format: biochemical; settings: Table O, enzymatic assay
T3 construct: purchased Carna Biosciences 04-105
Method in brief: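 Compound dose responses pre-incubated 30 min with enzyme mix in 50 mM HEPES pH 7.5, 10 mM MgCl2, 2 mM TCEP, 0.05% BGG, 0.01% Brij 35. Reaction quenched with EDTA (15 mM final); Eu-anti-phospho-4E-BP1 TR-FRET detection, acceptor/donor ratio. Ki derived by Morrison equation.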

[4] = system: OVISE (JCRB1043, CCNE1-amplified); test: OVISE EdU incorporation cell proliferation assay (CDK2-dependent); format: cell-based; settings: for IC50: cellular assay, read-out: CDK2 OVISE IC50; for FS SKOV-3/OVISE / FS p-H3/OVISE: fold selectivity; for FS p-H3/OVISE: cellular p-H3 IC50 over OVISE IC50; for increased fold-selectivity SKOV-3/OVISE over Comparator C: (+) sign after FS SKOV-3/OVISE; for improvement in CDK2 OVISE cell potency over Comparator C: in brackets after OVISE IC50, Comparator C 5.5 μM
Method in brief: (§1)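 Cells in RPMI/10% FBS dosed with compound (0.5% DMSO final) for 16 h at 37 °C, 5% CO2, then EdU 0.5 μM final for 8 h before fixation and imaging. IC50 from 4-parameter logistic fit of EdU-positive cell fraction versus dose.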

SKOV-3 (ATCC HTB-77) = test: SKOV-3 EdU incorporation cell proliferation assay (CDK4/6-dependent); format: cell-based; settings: Homo sapiens, cellular assay, read-out: CDK4/6 SKOV-3 IC50
Method in brief: as §1

HCT116 cells = test: p-H3 HCT-116 mitotic release cell proliferation assay (cellular CDK1); format: cell-based; settings: Homo sapiens, HCT-116; Table O, cellular assay; read-out: CDK1 p-H3 IC50
Method in brief: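 HCT116 cells arrested 16 h with 500 nM nocodazole, then exposed to compound for 4 h at 37 °C (0.1% DMSO). Lysates read by HTRF/FRET with donor and acceptor phospho-Histone H3 (Ser10) antibodies, ≥2 h at room temperature; CDK1 inhibition seen as loss of p-H3 on mitotic release.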

[5] = Table O, enzymatic CDK1 Ki over CDK2 Ki
[6] = Table O, enzymatic CDK4 Ki over CDK2 Ki
[7] = Table O, cellular SKOV-3 IC50 over OVISE IC50

T1 sequence (P06493 whole entry): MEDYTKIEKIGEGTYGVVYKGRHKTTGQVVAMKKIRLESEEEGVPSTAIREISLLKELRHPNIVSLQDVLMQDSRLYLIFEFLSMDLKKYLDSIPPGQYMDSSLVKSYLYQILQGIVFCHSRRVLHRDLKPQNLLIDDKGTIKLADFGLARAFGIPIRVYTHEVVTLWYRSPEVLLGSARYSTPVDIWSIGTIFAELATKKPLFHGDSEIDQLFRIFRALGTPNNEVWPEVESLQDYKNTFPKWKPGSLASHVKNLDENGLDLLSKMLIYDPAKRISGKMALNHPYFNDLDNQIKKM
T1 sequence (P20248 whole entry partner): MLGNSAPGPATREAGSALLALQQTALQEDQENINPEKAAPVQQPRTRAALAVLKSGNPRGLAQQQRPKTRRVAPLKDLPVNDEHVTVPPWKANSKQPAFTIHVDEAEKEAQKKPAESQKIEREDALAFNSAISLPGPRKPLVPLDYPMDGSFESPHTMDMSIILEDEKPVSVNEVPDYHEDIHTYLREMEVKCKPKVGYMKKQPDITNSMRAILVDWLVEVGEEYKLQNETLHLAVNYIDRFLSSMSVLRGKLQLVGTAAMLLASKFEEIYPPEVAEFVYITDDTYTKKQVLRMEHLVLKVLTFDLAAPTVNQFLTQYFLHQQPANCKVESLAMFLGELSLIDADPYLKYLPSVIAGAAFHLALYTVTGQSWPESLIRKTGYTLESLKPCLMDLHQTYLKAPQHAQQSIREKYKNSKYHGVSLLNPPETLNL
T3 sequence (P11802 whole entry): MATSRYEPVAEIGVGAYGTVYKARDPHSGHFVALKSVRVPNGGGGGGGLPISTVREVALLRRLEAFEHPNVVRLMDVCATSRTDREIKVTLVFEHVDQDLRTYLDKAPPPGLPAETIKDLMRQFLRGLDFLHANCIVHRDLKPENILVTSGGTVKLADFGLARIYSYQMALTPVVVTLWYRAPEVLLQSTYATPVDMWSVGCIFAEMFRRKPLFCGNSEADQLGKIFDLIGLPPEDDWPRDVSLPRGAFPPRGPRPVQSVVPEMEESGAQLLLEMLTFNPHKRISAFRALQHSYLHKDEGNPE
T3 sequence (P30281 whole entry partner): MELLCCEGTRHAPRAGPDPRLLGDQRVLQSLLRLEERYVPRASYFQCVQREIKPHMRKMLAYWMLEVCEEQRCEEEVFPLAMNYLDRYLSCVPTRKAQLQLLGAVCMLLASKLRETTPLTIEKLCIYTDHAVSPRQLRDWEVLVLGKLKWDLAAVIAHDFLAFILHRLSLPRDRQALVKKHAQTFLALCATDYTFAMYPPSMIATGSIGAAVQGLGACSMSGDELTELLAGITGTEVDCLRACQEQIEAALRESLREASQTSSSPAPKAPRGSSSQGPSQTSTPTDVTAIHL

| SMILES | Ki [1] [nM] | improvement in potency against CDK2 (Ki) over Comparator C [2] [fold] | Ki ([2]; Table O) [nM] | FS CDK1/CDK2 [2, 5] | FS CDK4/CDK2 [2, 6] | increased fold-selectivity CDK4/CDK2 over Comparator C ([2]; Table Q) | Ki ([2]; Table Q) [nM] | FS CDK1/CDK2 ([2]; Table Q, enzymatic) | FS CDK4/CDK2 ([2]; Table Q, enzymatic) | Ki [3] [nM] | IC50 ([4]; Table O) [nM] | FS SKOV-3/OVISE [4, 7] | FS p-H3/OVISE ([4]; Table O) | increased fold-selectivity SKOV-3/OVISE over Comparator C ([4]; Table Q) | FS SKOV-3/OVISE ([4]; Table Q, cellular) | improvement in CDK2 OVISE cell potency over Comparator C ([4]; Table Q) [fold] | IC50 (SKOV-3 (ATCC HTB-77); SK-OV-3, Table O) [nM] | IC50 (SKOV-3 (ATCC HTB-77); SK-OV-3, Table Q) [nM] | IC50 (HCT116 cells) [nM] |
| --- | --- | --- | --- | --- | --- | --- | --- | --- | --- | --- | --- | --- | --- | --- | --- | --- | --- | --- | --- |
| Cc1cncc(Nc2cc([C@H]3CC[C@@H](OC(=O)NC(C)C)C3)[nH]n2)c1 [Example 2K, (1R,3S)-3-(3-((5-methylpyridin-3-yl)amino)-1H-pyrazol-5-yl)cyclopentyl isopropylcarbamate] | 59 | 10 | 3.2 | 18 | 110 | (+) (The (+) sign in Table Q signifies desirable increased fold-selectivity of the exemplary compounds over Comparator C) | 3.2 | 18 | 110 | 340 | 190 | 41 | 0.46 | (+) (The (+) sign in Table Q signifies desirable increased fold-selectivity of the exemplary compounds over Comparator C) | 41 | 28.9 | 7700 | 7700 | 87 |
| CC(C)NC(=O)O[C@@H]1CC[C@H](c2cc(Nc3ccnc(C(F)(F)F)n3)n[nH]2)C1 [Example 2L, (1R,3S)-3-(3-((2-(trifluoromethyl)pyrimidin-4-yl)amino)-1H-pyrazol-5-yl)cyclopentyl isopropylcarbamate] | 2.9 | 188 | 0.17 | 17 | 650 | (+) (The (+) sign in Table Q signifies desirable increased fold-selectivity of the exemplary compounds over Comparator C) | 0.17 | 17 | 650 | 110 | 12 | 53 | 0.15 | (+) (The (+) sign in Table Q signifies desirable increased fold-selectivity of the exemplary compounds over Comparator C) | 53 | 458 | 640 | 640 | 1.8 |
| Cc1cncc(Nc2cc([C@H]3CC[C@@H](OC(=O)NC(C)C)C3)[nH]n2)n1 [Example 2M, (1R,3S)-3-(3-((6-methylpyrazin-2-y1)amino)-1H-pyrazol-5-yl)cyclopentyl isopropylcarbamate] | 6.3 | 123 | 0.26 | 24 | 110 | (+) (The (+) sign in Table Q signifies desirable increased fold-selectivity of the exemplary compounds over Comparator C) | 0.26 | 24 | 110 | 28 | 20 | 29 | 0.35 | (+) (The (+) sign in Table Q signifies desirable increased fold-selectivity of the exemplary compounds over Comparator C) | 29 | 275 | 580 | 580 | 7 |
| COc1cncc(Nc2cc([C@H]3CC[C@@H](OC(=O)NC(C)C)C3)[nH]n2)n1 [Example 2N, (1R,3S)-3-(3-((6-methoxypyrazin-2-yl)amino)-1H-pyrazol-5-yl)cyclopenty1 isopropylcarbamate] | 3.7 | 65 | 0.49 | 7.6 | 53 | (+) (The (+) sign in Table Q signifies desirable increased fold-selectivity of the exemplary compounds over Comparator C) | 0.49 | 7.6 | 53 | 26 | 29 | 41 | 0.38 | (+) (The (+) sign in Table Q signifies desirable increased fold-selectivity of the exemplary compounds over Comparator C) | 41 | 190 | 1200 | 1200 | 11 |
| Cc1nccc(Nc2cc([C@H]3CC[C@@H](OC(=O)NC(C)C)C3)[nH]n2)n1 [Example 2O, (1R,3S)-3-(3-((2-methylpyrimidin-4-yl)amino)-1H-pyrazol-5-yl)cyclopenty1 isopropylcarbamate] | 24 | 37 | 0.87 | 28 | 290 | (+) (The (+) sign in Table Q signifies desirable increased fold-selectivity of the exemplary compounds over Comparator C) | 0.87 | 28 | 290 | 250 | 70 | 56 | 0.31 | (+) (The (+) sign in Table Q signifies desirable increased fold-selectivity of the exemplary compounds over Comparator C) | 56 | 78.6 | 3900 | 3900 | 22 |
